Assay results: patent publication US20190375708A1 (VenatoRx Pharmaceuticals, Inc., priority 2018, published 2019)

Legend:
[1] = tested on: HBV replication in HepAD38 cells; assay: Anti-HBV replication assay in HepAD38 cells (QPCR of extracellular HBV DNA); format: cell-based, HBV (genotype D, serotype ayw); conditions: Hepatitis B virus, 168 h, 7 days incubation, extracellular HBV DNA by QPCR, read-out: Anti-HBV EC50
Summary of the method: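 HepAD38 cells (HepG2 carrying a tet-repressible HBV genotype D genome) were seeded in tetracycline-free medium and treated next day with compound […] for 7 days. Supernatant HBV DNA was measured by QPCR against a standard curve; EC50 came from 4-parameter fits of inhibition versus DMSO control.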

[2] = In vitro cytotoxicity assay (MTT cell viability) in HepG2 cells; format: cell-based, human; conditions: human
Summary of the method: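 CC50 values reflect loss of HepG2 viability after a 7-day exposure at 37 °C, 5% CO2. After 3-4 h with MTT, solubilized formazan was quantified at 492 nm relative to vehicle wells.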

| Structure (SMILES) | EC50 [1] [µM] | CC50 at 7 days [2] [µM] |
| --- | --- | --- |
| Cc1cc(NC(=O)c2c(C)c(C(=O)C(=O)N[C@@H]3CCCC[C@H]3O)n(C)c2C)ccc1F [Example 136, N-(4-fluoro-3-methylphenyl)-5-(2-(((1R,2R)-2-hydroxycyclohexyl)amino)-2-oxoacetyl)-1,2,4-trimethyl-1H-pyrrole-3-carboxamide] | < 0.05 | > 30 |
| Cc1c(C(=O)Nc2ccc(F)nc2)c(C)n(C)c1C(=O)C(=O)NC1(C(N)=O)CCCCC1 [Example 93, 5-(2-((1-carbamoylcyclohexyl)amino)-2-oxoacetyl)-N-(6-fluoropyridin-3-yl)-1,2,4-trimethyl-1H-pyrrole-3-carboxamide] | 0.05 to 0.499 | > 30 |
| Cc1c(C(=O)Nc2cccc(C(F)F)c2)c(C)n(C)c1C(=O)C(=O)N[C@]1(C)C[C@H](O)C1 [Example 705, N-(3-(difluoromethyl)phenyl)-5-(2-(((1s,3s)-3-hydroxy-1-methylcyclobutyl)amino)-2-oxoacetyl)-1,2,4-trimethyl-1H-pyrrole-3-carboxamide] | < 0.05 | > 30 |
| Cc1cc(NC(=O)c2c(C)c(C(=O)C(=O)N[C@@H](CO)C(=O)O)n(C)c2C)ccc1F [Example 32, (2-(4-((4-fluoro-3-methylphenyl)carbamoyl)-1,3,5-trimethyl-1H-pyrrol-2-yl)-2-oxoacetyl)-L-serine] | > 1 | > 30 |
| Cc1cc(NC(=O)c2c(C)c(C(=O)C(=O)NC(C)(C)C(F)(F)F)n3c2CCCC3)cnc1F [Example 468, N-(6-fluoro-5-methylpyridin-3-yl)-2-methyl-3-(2-oxo-2-((1,1,1-trifluoro-2-methylpropan-2-yl)amino)acetyl)-5,6,7,8-tetrahydroindolizine-1-carboxamide] | 0.05 to 0.499 | > 30 |
| Cc1cc(NC(=O)c2c(C)c(C(=O)C(=O)N[C@@H](C(N)=O)C(C)C)n(C)c2C)ccc1F [Example 105, (R)-5-(2-((1-amino-3-methyl-1-oxobutan-2-yl)amino)-2-oxoacetyl)-N-(4-fluoro-3-methylphenyl)-1,2,4-trimethyl-1H-pyrrole-3-carboxamide] | < 0.05 | 5 to 30 |
| O=C(NC1(CO)CC1)C(=O)c1c(Cl)c(C(=O)Nc2ccc(F)c(F)c2)c2n1CCCC2 [Example 502, 2-chloro-N-(3,4-difluorophenyl)-3-(2-((1-(hydroxymethyl)cyclopropyl)amino)-2-oxoacetyl)-5,6,7,8-tetrahydroindolizine-1-carboxamide] | 0.05 to 0.499 | > 30 |
| Cc1c(C(=O)Nc2ccnc(Cl)c2)c(C)n(C)c1C(=O)C(=O)NC1C2CC3CC1CC(O)(C3)C2 [Example 209, N-(2-chloropyridin-4-yl)-5-(2-(((1R,2s,3S,5s,7s)-5-hydroxyadamantan-2-yl)amino)-2-oxoacetyl)-1,2,4-trimethyl-1H-pyrrole-3-carboxamide] | < 0.05 | > 30 |
| Cc1c(C(=O)Nc2cccc(C(F)F)c2)c(C)n(C)c1C(=O)C(=O)N[C@]1(C)CC[C@H](O)CC1 [Example 701, N-(3-(difluoromethyl)phenyl)-5-(2-(((1s,4s)-4-hydroxy-1-methylcyclohexyl)amino)-2-oxoacetyl)-1,2,4-trimethyl-1H-pyrrole-3-carboxamide] | < 0.05 | > 30 |
| Cc1cc(NC(=O)c2c(C)c(C(=O)C(=O)Nc3ccc4c(c3)COB4O)n(C)c2C)ccc1F [Example 678, N-(4-fluoro-3-methylphenyl)-5-(2-((1-hydroxy-1,3-dihydrobenzo[c][1,2]oxaborol-5-yl)amino)-2-oxoacetyl)-1,2,4-trimethyl-1H-pyrrole-3-carboxamide] | < 0.05 | 5 to 30 |
| Cc1cc(NC(=O)c2c(C)c(C(=O)C(=O)N[C@@H]3c4ccccc4C[C@@H]3O)n(C)c2C)ccc1F [Example 258, N-(4-fluoro-3-methylphenyl)-5-(2-(((1R,2S)-2-hydroxy-2,3-dihydro-1H-inden-1-yl)amino)-2-oxoacetyl)-1,2,4-trimethyl-1H-pyrrole-3-carboxamide] | < 0.05 | 5 to 30 |
| Cc1cc(NC(=O)c2c(C)c(C(=O)C(=O)NC3(C)CCN(c4cccnn4)CC3)n(C)c2C)ccc1F [Example 728, N-(4-fluoro-3-methylphenyl)-1,2,4-trimethyl-5-(2-((4-methyl-1-(pyridazin-3-yl)piperidin-4-yl)amino)-2-oxoacetyl)-1H-pyrrole-3-carboxamide] | < 0.05 | > 30 |
| Cc1nnc(CCNC(=O)C(=O)c2c(C)c(C(=O)Nc3ccc(F)c(C)c3)c(C)n2C)s1 [Example 356] | < 0.05 | > 30 |
| Cc1cc(NC(=O)c2c(C)c(C(=O)C(=O)N[C@H]3[C@@H]4CN(S(C)(=O)=O)C[C@@H]43)n(C)c2C)ccc1F [Example 644, N-(4-fluoro-3-methylphenyl)-1,2,4-trimethyl-5-(2-(((1R,5S,6s)-3-(methylsulfonyl)-3-aabicyclo[3.1.0]hexan-6-yl)amino)-2-oxoacetyl)-1H-pyrrole-3-carboxamide] | < 0.05 | 5 to 30 |
| Cc1nc(C(C)(NC(=O)C(=O)c2c(C)c(C(=O)Nc3ccc(F)c(C)c3)c(C)n2C)C2CC2)no1 (stereo not drawn) [Example 716, 5-(2-((1-cyclopropyl-1-(5-methyl-1,2,4-oxadiazol-3-yl)ethyl)amino)-2-oxoacetyl)-N-(4-fluoro-3-methylphenyl)-1,2,4-trimethyl-1H-pyrrole-3-carboxamide] | < 0.05 | > 30 |
| Cc1cc(NC(=O)c2c(C)c(C(=O)C(=O)NC3CCN(C4CCSCC4)CC3)n(C)c2C)ccc1F [Example 654, N-(4-fluoro-3-methylphenyl)-1,2,4-trimethyl-5-(2-oxo-2-((1-(tetrahydro-2H-thiopyran-4-yl)piperidin-4-yl)amino)acetyl)-1H-pyrrole-3-carboxamide] | < 0.05 | > 30 |
| Cc1c(C(=O)Nc2ccc(F)c(Cl)c2)c2n(c1C(=O)C(=O)NCc1cnc(N)s1)CCCC2 [Example 448, 3-(2-(((2-aminothiazol-5-yl)methyl)amino)-2-oxoacetyl)-N-(3-chloro-4-fluorophenyl)-2-methyl-5,6,7,8-tetrahydroindolizine-1-carboxamide] | < 0.05 | 5 to 30 |
| Cc1cc(NC(=O)c2c(C)c(C(=O)C(=O)NCc3nnc(C(F)(F)F)[nH]3)n(C)c2C)ccc1F [Example 244, N-(4-fluoro-3-methylphenyl)-1,2,4-trimethyl-5-(2-oxo-2-(((t-(trifluoromethyl)-4H-1,2,4-triazol-3-yl)methyl)amino)acetyl)-1H-pyrrole-3-carboxamide] | 0.05 to 0.499 | 5 to 30 |
| Cc1cc(NC(=O)c2c(C)c(C(=O)C(=O)NC3(CO)CC(F)(F)C3)n3c2CCCC3)cnc1F [Example 474, 3-(2-((3,3-difluoro-1-(hydroxymethyl)cyclobutyl)amino)-2-oxoacetyl)-N-(6-fluoro-5-methylpyridin-3-yl)-2-methyl-5,6,7,8-tetrahydroindolizine-1-ccarboxamide] | 0.5 to 1 | > 30 |
| Cc1cc(NC(=O)c2c(C)c(C(=O)C(=O)N[C@@H]3CC[C@H](O)[C@@H]3O)n(C)c2C)ccc1F [Example 152, 5-(2-(((1R,2R,3S)-2,3-dihydroxycyclopentyl)amino)-2-oxoacetyl)-N-(4-fluoro-3-methylphenyl)-1,2,4-trimethyl-1H-pyrrole-3-carboxamide] | < 0.05 | > 30 |
| Cc1c(C(=O)Nc2ccc(F)c(Cl)c2)c(C)n(C)c1C(=O)C(=O)Nc1ccc(F)nc1 [Example 312, N-(3-chloro-4-fluorophenyl)-5-(2-((6-fluoropyridin-3-yl)amino)-2-oxoacetyl)-1,2,4-trimethyl-1H-pyrrole-3-carboxamide] | < 0.05 | 5 to 30 |
| Cc1cc(NC(=O)C(=O)c2c(C)c(C(=O)Nc3ccc(F)c(C)c3)c(C)n2C)ccc1F [Example 216, N-(4-fluoro-3-methylphenyl)-5-(2-((4-fluoro-3-methylphenyl)amino)-2-oxoacetyl)-1,2,4-trimethyl-1H-pyrrole-3-carboxamide] | < 0.05 | 5 to 30 |
| O=C(N[C@H]1COC[C@@H]1O)C(=O)c1c(Cl)c(C(=O)Nc2ccc(F)c(Cl)c2)c2n1CCCC2 [Example 513, 2-chloro-N-(3-chloro-4-fluorophenyl)-3-(2-(((3S,4R)-4-hydroxytetrahydrofuran-3-yl)amino)-2-oxoacetyl)-5,6,7,8-tetrahydroindolizine-1-carboxamide] | 0.05 to 0.499 | > 30 |
| Cc1cc(NC(=O)c2c(C)c(C(=O)C(=O)NC3CCN(c4cccnn4)CC3)n(C)c2C)ccc1F [Example 660, N-(4-fluoro-3-methylphenyl)-1,2,4-trimethyl-5-(2-oxo-2-((1-(pyridazin-3-yl)piperidin-4-yl)amino)acetyl)-1H-pyrrole-3-carboxamide] | < 0.05 | > 30 |
| Cc1c(C(=O)NC2CCCC2)c2n(c1C(=O)C(=O)NC(C)(C)CO)CCCC2 [Example 754] | 0.05 to 0.499 | > 30 |
| Cc1noc([C@@H](NC(=O)C(=O)c2c(C)c(C(=O)Nc3ccc(F)c(C)c3)c(C)n2C)C(C)C)n1 [Example 145, (S)-N-(4-fluoro-3-methylphenyl)-1,2,4-trimethyl-5-(2-((2-methyl-1-(3-methyl-1,2,4-oxadiazol-5-yl)propyl)amino)-2-oxoacetyl)-1H-pyrrole-3-carboxamide] | < 0.05 | > 30 |
| Cc1cc(NC(=O)c2c(C)c(C(=O)C(=O)N[C@@H]3CCOC[C@H]3O)n(C)c2C)ccc1F [Example 149, N-(4-fluoro-3-methylphenyl)-5-(2-(((3S,4R)-3-hydroxytetrahydro-2H-pyran-4-yl)amino)-2-oxoacetyl)-1,2,4-trimethyl-1H-pyrrole-3-carboxamide] | < 0.05 | > 30 |
